Measurements as given in patent publication US5194424A, “C^63 -amide derivatives of 34-de(acetylglucosaminyl)-34-deoxy-teicoplanin and their use as medicaments against bacteria resistant to glycopeptide antibiotics” (Gruppo Lepetit SpA, priority 1988, dated 1993).

Legend:
[1] = tested on: Staphylococcus epidermidis ATCC 12228; test: In vitro MIC, standard agar-dilution test in microtiter; assay type: cell-based; settings: ISOSENSITEST broth, inoculum about 10^4 CFU/ml, 18-24 h at 37° C.
Experimental: (§1) The antibacterial activity, of the compounds of the invention is determined in vitro by means of standard agar-dilution tests in microtiter. ISOSENSITEST broth (Oxoid) and TODD-HEWITT broth (Difco) are used for growing Staphylococci and Streptococci. respectively. Broth cultures are diluted so that the final inoculum is about 10^4 forming units/ml (CFU/ml).

[2] = tested on: Streptococcus pyogenes C 203; test: as above; assay type: cell-based; settings: TODD-HEWITT broth, inoculum about 10^4 CFU/ml, 18-24 h at 37° C.
Experimental: as §1

[3] = tested on: Staphylococcus aureus TOUR; test: as above; assay type: cell-based; settings: ISOSENSITEST broth, inoculum about 10^4 CFU/ml, 18-24 h at 37° C.
Experimental: as §1

[4] = tested on: Streptococcus faecalis ATCC 7080; test: as above; assay type: cell-based; settings: TODD-HEWITT broth, inoculum about 10^4 CFU/ml, 18-24 h at 37° C.
Experimental: as §1

[5] = tested on: Streptococcus pneumoniae UC 41; test: as above; assay type: cell-based; settings: TODD-HEWITT broth, inoculum about 10^4 CFU/ml, 18-24 h at 37° C.
Experimental: as §1, with “TODD-[…]” for “TODD-HEWITT”

[6] = tested on: Staphylococcus haemolyticus L 602; test: as above; assay type: cell-based; settings: ISOSENSITEST broth, inoculum about 10^4 CFU/ml, 18-24 h at 37° C.
Experimental: as §1, with “TODD-[…]” for “TODD-HEWITT”

[7] = tested on: glycopeptide-resistant E. faecium; test: In vitro MIC against glycopeptide-resistant Enterococci; assay type: cell-based
Experimental: (§2) In particular, the activity of the compounds of the invention was confirmed through in vitro experiments carried out with clinical isolates resistant to glycopeptide antibiotics such as with Enterococci faecalis, Enterococci faecium, as shown in Table IIa.
(§3) The antibacterial activity is determined in vitro by means of standard
(§4) agardilution tests in microtiter. ISOSENSITEST broth (Oxoid) is used for
(§5) growing Enterococci. Broth cultures are diluted so that the final inoculu
(§6) is about 5 × 10^5 forming units/ml (CFU/ml).

[8] = tested on: glycopeptide-resistant E. faecalis; test: as above; assay type: cell-based
Experimental: as §2, §3, §4, §5, §6

[9] = tested on: Streptococcus pyogenes C 203; settings: comparison statement for teicoplanin and prior-art compounds; never lower than; cited from earlier work
[10] = tested on: clinical isolates of Streptococcus pyogenes; test: MIC against clinical isolates of Streptococcus pyogenes; assay type: cell-based
Experimental: as §1

[11] = E. faecium L 1666, ISOSENSITEST broth, inoculum about 5 × 10^5 CFU/ml

**Q.** Which MIC [1] does the source give for `CC(C)CCCCCCC(=O)N[C@H]1[C@H](Oc2c3cc4cc2Oc2ccc(cc2Cl)CC2NC(=O)C(NC(=O)C4NC(=O)C4NC(=O)C(Cc5ccc(c(Cl)c5)O3)NC(=O)C(N)c3ccc(O)c(c3)Oc3cc(O)cc4c3)c3ccc(O)c(c3)-c3c(O[C@H]4O[C@H](CO)[C@@H](O)[C@H](O)[C@@H]4O)cc(O)cc3C(C(=O)NCCCN(C)C)NC2=O)O[C@H](CO)[C@@H](O)[C@@H]1O` (stereo partly shown) [Compound 6] here?
**A.** 0.12 microgram/ml

**Q.** What about the MIC [2] of the same compound?
**A.** 0.06 microgram/ml

**Q.** What about the MIC [3] of the same compound?
**A.** 2 microgram/ml

**Q.** What about the MIC [4] of the same compound?
**A.** 2 microgram/ml

**Q.** And the MIC [5]?
**A.** 0.25 microgram/ml

**Q.** What about the MIC [6] of the same compound?
**A.** 1 microgram/ml

**Q.** Which MIC [1] does the source give for `CC(C)CCCCCCC(=O)N[C@H]1[C@H](Oc2c3cc4cc2Oc2ccc(cc2Cl)CC2NC(=O)C(NC(=O)C4NC(=O)C4NC(=O)C(Cc5ccc(c(Cl)c5)O3)NC(=O)C(N)c3ccc(O)c(c3)Oc3cc(O)cc4c3)c3ccc(O)c(c3)-c3c(O[C@H]4O[C@H](CO)[C@@H](O)[C@H](O)[C@@H]4O)cc(O)cc3C(C(=O)NCCCNCCO)NC2=O)O[C@H](CO)[C@@H](O)[C@@H]1O` (stereo partly shown) [Compound 7] here?
**A.** 0.06 microgram/ml

**Q.** What about the MIC [2] of the same compound?
**A.** 0.032 microgram/ml

**Q.** What about the MIC [3] of the same compound?
**A.** 1 microgram/ml

**Q.** What about the MIC [4] of the same compound?
**A.** 2 microgram/ml

**Q.** And the MIC [5]?
**A.** 0.25 microgram/ml

**Q.** And the MIC [6]?
**A.** 1 microgram/ml

**Q.** Which MIC [1] does the source give for `CC(C)CCCCCCC(=O)N[C@H]1[C@H](Oc2c3cc4cc2Oc2ccc(cc2Cl)CC2NC(=O)C(NC(=O)C4NC(=O)C4NC(=O)C(Cc5ccc(c(Cl)c5)O3)NC(=O)C(N)c3ccc(O)c(c3)Oc3cc(O)cc4c3)c3ccc(O)c(c3)-c3c(O[C@H]4O[C@H](CO)[C@@H](O)[C@H](O)[C@@H]4O)cc(O)cc3C(C(=O)NCCCN(CCCN)CCCN)NC2=O)O[C@H](CO)[C@@H](O)[C@@H]1O` (stereo partly shown) [Compound 33] here?
**A.** 0.004 microgram/ml

**Q.** And the MIC [2]?
**A.** 0.004 microgram/ml

**Q.** And the MIC [3]?
**A.** 0.12 microgram/ml

**Q.** And the MIC [4]?
**A.** 0.12 microgram/ml

**Q.** What about the MIC [5] of the same compound?
**A.** 0.12 microgram/ml

**Q.** What about the MIC [6] of the same compound?
**A.** 0.032 microgram/ml

**Q.** What does the source list for `CN[C@H](CC(C)C)C(=O)N[C@H]1C(=O)N[C@@H](CC(N)=O)C(=O)N[C@H]2C(=O)N[C@H]3C(=O)N[C@H](C(=O)N[C@H](C(=O)O)c4cc(O)cc(O)c4-c4cc3ccc4O)[C@H](O)c3ccc(c(Cl)c3)Oc3cc2cc(c3O[C@@H]2O[C@H](CO)[C@@H](O)[C@H](O)[C@H]2O[C@H]2C[C@](C)(N)[C@H](O)[C@H](C)O2)Oc2ccc(cc2Cl)[C@H]1O` [VANCO, vancomycin]?
**A.** MIC [7, 11]: > 128 µg/mL; MIC ([7]; Enterococcus faecium): > 128 µg/mL; MIC ([7]; Enterococcus faecium, NCTC12203): > 128 µg/mL; MIC ([8]; Enterococcus faecalis): > 128 µg/mL; MIC ([8]; Enterococcus faecalis, NCTC12201): > 128 µg/mL; MIC ([8]; Enterococcus faecalis, NCTC12202): > 128 µg/mL

**Q.** Which “MIC against Streptococcus pyogenes” value [9] does the source give for teicoplanin here?
**A.** ≥ 0.06 microgram/ml

**Q.** What about the MIC [7, 11] of the same compound?
**A.** > 128 µg/mL

**Q.** And the MIC ([7]; E. faecium NCTC 12203, ISOSENSITEST broth, inoculum about 5 × 10^5 CFU/ml)?
**A.** 64 µg/mL

**Q.** What about the MIC ([7]; E. faecium NTCT 12204, ISOSENSITEST broth, inoculum about 5 × 10^5 CFU/ml) of the same compound?
**A.** 64 µg/mL

**Q.** What about the MIC ([8]; E. faecalis L 560, ISOSENSITEST broth, inoculum about 5 × 10^5 CFU/ml) of the same compound?
**A.** > 128 µg/mL

**Q.** What about the MIC ([8]; E. faecalis NCTC 12201, ISOSENSITEST broth, inoculum about 5 × 10^5 CFU/ml) of the same compound?
**A.** 128 µg/mL

**Q.** What about the MIC ([8]; E. faecalis NCTC 12202, ISOSENSITEST broth, inoculum about 5 × 10^5 CFU/ml) of the same compound?
**A.** 128 µg/mL

**Q.** What about the MIC ([10]; S. pyogenes strain L-33) of the same compound?
**A.** 0.063 microgram/ml

**Q.** And the MIC ([10]; S. pyogenes strain L-317)?
**A.** 0.063 microgram/ml

**Q.** What about the MIC ([10]; S. pyogenes strain L-800) of the same compound?
**A.** 0.063 microgram/ml

**Q.** And the MIC ([10]; S. pyogenes strain L-801)?
**A.** 0.063 microgram/ml

**Q.** And the MIC ([10]; S. pyogenes strain L-802)?
**A.** 0.063 microgram/ml

**Q.** What about the MIC ([10]; S. pyogenes strain L-803) of the same compound?
**A.** 0.063 microgram/ml

**Q.** What about the MIC ([10]; S. pyogenes strain L-804) of the same compound?
**A.** 0.063 microgram/ml

**Q.** What about the MIC ([10]; S. pyogenes strain L-805) of the same compound?
**A.** 0.063 microgram/ml

**Q.** What about the MIC ([10]; S. pyogenes strain L-1303) of the same compound?
**A.** 0.063 microgram/ml

**Q.** What about the MIC ([10]; S. pyogenes strain L-1304) of the same compound?
**A.** 0.125 microgram/ml

**Q.** And the MIC ([10]; S. pyogenes strain L-1306)?
**A.** 0.125 microgram/ml

**Q.** And the MIC ([10]; S. pyogenes strain L-1315)?
**A.** 0.063 microgram/ml

**Q.** What about the MIC ([10]; S. pyogenes strain L-1316) of the same compound?
**A.** 0.063 microgram/ml

**Q.** And the MIC ([10]; S. pyogenes strain L-1318)?
**A.** 0.063 microgram/ml

**Q.** What about the MIC ([10]; S. pyogenes strain L-1319) of the same compound?
**A.** 0.063 microgram/ml
